Results reported in PMC7407822, “Aldose Reductase Differential Inhibitors in Green Tea” (Biomolecules, 2020).
Like-named read-outs stand apart in the source and are kept apart here.

Assays:
[1] = biological target: T1, human recombinant AKR1B1 (Homo sapiens, UniProt P15121); experiment: Steady state inhibition kinetic analysis (Hanes-Woolf and secondary plots); assay type: biochemical; conditions: for Ki’ (appK’i, ESI complex dissociation constant) / Ki: mean ± SD; for Ki: read-out: Ki (appKi, EI complex dissociation constant)
T1 construct: made in house
Procedure: The AKR1B1 activity was determined at 37 °C, as previously described, monitoring the decrease in absorbance at 340 nm linked to NADPH oxidation (ε340 = 6.22 mM^−1.cm^−1) using a Biochrom Libra S60 spectrophotometer. The standard assay mixture (0.7 mL) contained in a 0.25 M sodium phosphate buffer pH 6.8, 0.18 mM NADPH, 0.4 M ammonium sulfate, 0.5 mM EDTA, and 4.7 mM GAL. One unit of enzyme activity is the amount of enzyme that catalyzes the conversion of 1 µmol of substrate/min in the above assay conditions.
The kinetic analysis of the experimental rate measurements with different substrates (S) in the presence of inhibitors (I) was performed on the classical inhibition model of action. Here, (I) is considered to intervene into a steady state condition of the reaction, being free to interact with the free enzyme (E), the ES complex or with both, through a rapid equilibrium. Data were analyzed by Hanes-Woolf plots. The apparent dissociation constants ^appKi’ (for the ESI complex) and ^appKi (for the EI complex) were determined from secondary plots of 1/^appVmax and ^appKM/^appVmax as a function of the inhibitor concentration, respectively.

[2] = biological target: T1, human recombinant AKR1B1; experiment: AKR1B1 activity assay (NADPH oxidation at 340 nm), dose-dependent inhibition, IC50; assay type: biochemical
Procedure: One unit of enzyme activity is the amount of enzyme that catalyzes the conversion of 1 µmol of substrate/min in the above assay conditions.
The human recombinant AKR1B1 was expressed and purified to electrophoretic homogeneity, as previously described. […] The purified enzyme was stored at −80 °C in a 10 mM sodium phosphate buffer pH 7.0 containing 2 mM DTT and 30% (w/v) glycerol. Before use, AKR1B1 was extensively dialyzed against 10 mM of a sodium phosphate buffer pH 7.0.

[3] = system: AKR1B1; conditions: known inhibitor co-crystallized with AKR1B1, PDB code 4IGS; cited from earlier work
[4] = 8 mM L-idose, 0.03 mM HNE, 0.07 mM GSHNE

Row | SMILES | type (model) of inhibition ([1]; substrate GSHNE) | Ki’ (appK’i, ESI complex dissociation constant) ([1]; substrate GSHNE) [µM] | type (model) of inhibition ([1]; substrate HNE) | Ki’ (appK’i, ESI complex dissociation constant) ([1]; substrate HNE) [µM] | type (model) of inhibition ([1]; substrate L-idose) | Ki’ (appK’i, ESI complex dissociation constant) ([1]; substrate L-idose) [µM] | residual activity for HNE reduction, of activity in the absence of inhibitor ([2]; 0.03 mM HNE, at EGCG concentrations equal to its IC50 for L-idose and GSHNE ([…] and […])) | ARDI action (differential inhibition of L-idose and GSHNE reduction with respect to HNE) [2, 4] | activity as AKR1B1 inhibitor [3] | Ki ([1]; substrate GSHNE) [µM] | Ki/Ki’ ([1]; substrate HNE) | Ki ([1]; substrate HNE) [µM] | Ki/Ki’ ([1]; substrate L-idose) | IC50 ([2]; read-out: IC50 values, unaffected by the nature of the substrate) [µM] | IC50 ([2]; IC50, GSHNE reduction, 0.07 mM GSHNE, 8 mU AKR1B1, 37 °C, pH 6.8) [µM] | IC50 ([2]; IC50, HNE reduction, 0.03 mM HNE, 8 mU AKR1B1, 37 °C, pH 6.8) [µM] | IC50 ([2]; IC50, L-idose reduction, 8 mM L-idose, 8 mU AKR1B1, 37 °C, pH 6.8) [µM]
1 | O=C(O[C@@H]1Cc2c(O)cc(O)cc2O[C@@H]1c1cc(O)c(O)c(O)c1)c1cc(O)c(O)c(O)c1 [EGCG, epigallocatechin gallate] | apparently purely non-competitive type of inhibition | 144 ± 22 | typical uncompetitive model of action | 116 ± 11 | mixed type of inhibition | 61 ± 9 | 80–90% | comparable significant (p < 0.0001) ARDI action |  |  |  |  |  |  |  |  | 
2 | Oc1c(F)c(F)c(-c2c(F)c(F)c(O)c(F)c2F)c(F)c1F [JF0064] |  |  |  |  |  |  |  |  | very active at sub micromolar levels |  |  |  |  |  |  |  | 
3 | Oc1cc(O)c2c(c1)O[C@H](c1cc(O)c(O)c(O)c1)[C@H](O)C2 [EGC, epigallocatechin] | competitive inhibitor |  |  | 686 ± 63 |  | 496 ± 35 |  | completely ineffective as ARDI |  | 553 ± 87 | 2.5 | 1680 ± 289 | 2.5 | 500 to 700 |  |  | 
4 | O=C(O)c1cc(O)c(O)c(O)c1 [GA, gallic acid] | apparent uncompetitive model of action | 793 ± 102 | apparent uncompetitive model of action | 253 ± 23 | apparent uncompetitive model of action | 103 ± 7 |  | still able to act as an ARDI |  |  |  |  |  |  | 2500 | 586 | 196
